{"source": "paper PMC6724072", "about": "“Biotransformation of the Mycotoxin Enniatin B1 by CYP P450 3A4 and Potential for Drug-Drug Interactions” (Metabolites, 2019)", "key": {"CYP3A4 [1]": {"target": "T1, CYP3A4 (Homo sapiens, UniProt P08684, S18F)", "T1 sequence (P08684 with tags, fused parts or gaps S18F limits assumed)": "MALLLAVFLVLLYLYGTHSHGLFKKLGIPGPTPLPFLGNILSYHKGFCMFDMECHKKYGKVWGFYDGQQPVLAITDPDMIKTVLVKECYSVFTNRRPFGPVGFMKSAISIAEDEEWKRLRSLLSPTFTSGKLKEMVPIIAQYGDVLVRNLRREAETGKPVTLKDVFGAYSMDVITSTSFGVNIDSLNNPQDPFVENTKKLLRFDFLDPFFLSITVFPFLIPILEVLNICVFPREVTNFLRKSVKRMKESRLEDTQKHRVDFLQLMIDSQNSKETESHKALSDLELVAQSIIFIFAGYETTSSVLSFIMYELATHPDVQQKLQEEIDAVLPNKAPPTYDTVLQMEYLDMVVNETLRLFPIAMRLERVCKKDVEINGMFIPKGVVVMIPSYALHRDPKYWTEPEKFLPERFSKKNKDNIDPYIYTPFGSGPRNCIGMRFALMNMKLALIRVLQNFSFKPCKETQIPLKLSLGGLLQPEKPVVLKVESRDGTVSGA", "T1 sequence (P02647 79-267 partner limits assumed)": "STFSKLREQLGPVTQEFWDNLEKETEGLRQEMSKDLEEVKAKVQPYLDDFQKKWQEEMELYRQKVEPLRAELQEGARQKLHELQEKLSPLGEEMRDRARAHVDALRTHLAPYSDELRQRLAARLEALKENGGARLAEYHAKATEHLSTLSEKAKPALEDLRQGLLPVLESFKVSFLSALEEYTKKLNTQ"}, "CYP3A4 [2]": {"tested_on": "CYP3A4", "parameters": "method as in PMID 16467307", "conditions": "read-out: Ks; cited from earlier work"}, "CYP3A [3]": {"tested_on": "CYP3A"}, "CYP3A4 [4]": {"target": "T1, CYP3A4", "conditions": "ND; 15 min; DON 10 µM and 50 µM; different ENNB1 concentrations"}, "CYP3A4/5": {"tested_on": "CYP3A4/5", "conditions": "HLM, 10 µM DON and […] ENNB1"}, "CYP3A [5]": {"tested_on": "CYP3A", "conditions": "porcine hepatic microsomes; cited from earlier work"}, "CYP3A4 [6]": {"target": "T1, CYP3A4", "conditions": "for PGS hydroxylation rate (sum of 2β- and 6β-OH-PGS): ND, without DON, mean ± SEM"}, "[7]": {"parameters": "method as in PMID 27632250", "conditions": "chicken; cited from earlier work"}, "[8]": {"parameters": "method as in PMID 24239892, PMID 23598119", "conditions": "pigs; cited from earlier work"}, "[9]": {"experiment": "ENNB1 substrate depletion assay in human liver microsomes", "assay_type": "in vitro ADME", "conditions": "HLM", "description": "(§1) The kinetic parameters were derived in HLM assays from the substrate depletion rate constants (ke) that were determined by regression analysis of measured peak areas of the added substrate versus time curves (A(t) = b + a*e^−ket), as described before. Briefly, the assay half-lifes (t1/2, assay = ln2/ke) and assay clearances (CLassay = Vassay*ke) were calculated under consideration of the assay volume (Vassay). Disregarding the potential protein binding of the substrate in the reaction mixture (assuming that the fraction unbound in the assay (fu, assay ~ 1)), the determined assay clearances approximated the intrinsic assay clearances (CLint, assay), which can be described by the Michaelis–Menten equation parameters maximal velocity (vmax, assay) and […] (KM, assay) under the condition that the substrate concentration is well below the KM-value (CLint, assay = vmax, assay/KM, assay). The KM, assay for ENNB1 depletion was determined with different initial concentrations by plotting the determined depletion rate constants versus the respective concentrations. The inflection point of the curve in a lin-log plot represented the KM-value, which occurred when ke is half of the theoretical maximum k0 at infinitesimally low ENNB1 concentrations (ke = k0[ENNB1]→0 *(1 − [ENNB1]/([ENNB1] + KM)).\nENNB1 and its major biotransformation products were analysed while using a Finnigan LTQ linear ion trap mass spectrometer (Thermo Fisher Scientific Inc., Waltham, MA, USA) that was coupled to an ACQUITY UPLC System (Waters). Separation was achieved on a 50 × 2.1-mm i.d. C18 3-μm SunFire column (Waters) with 0.5 μm pre-column filter (Supelco, Bellefonte, PA, USA). The mobile phase was composed of water (A) and MeCN (B) (both containing 2 mM NH4COOH and 2 mM HCOOH). The optimised linear gradient started at 40% B and was held for 1.5 min, before it was raised to […] over 14.5 min. The column was flushed with […] for 2 min, returned to 40% B, and equilibrated for 2.0 min. The total run time was 20 min.\nENNB1 and its putative metabolites were identified by their molecular weights (mass-to-charge (m/z) ratios) and specific retention times. In addition, the MS^n data of the sodiated molecular ions were specified in fragmentation experiments and used for confirmation. The measured peak areas of the ammoniated molecular ions ([M+NH4]^+) were used for the determination of in vitro kinetic parameters and for quantification purposes."}, "in vitro": {"experiment": "in vitro", "conditions": "human, microsomes, pH 7.4"}, "[10]": {"experiment": "In vitro-to-in vivo extrapolation of kinetic parameters (well-stirred liver model)", "assay_type": "in vitro ADME", "description": "as §1\nThe CLint, assay in HLM was upscaled to the assay-independent, intrinsic liver clearance (CLint = CLint, assay*MRI*RLW/Protassay) by considering the amounts of microsomal protein in the assay (Protassay), human relative liver weight (RLW), and human microsomal recovery index (MRI) (Table 1). In vitro-to-in vivo extrapolation (IVIVE) was performed by applying the well-stirred liver model and calculating the systemic blood clearances (CLb) from the CLint, while considering the human hepatic blood flow (Q) (CLb = Q*CLint*fu,b/(Q + CLint*fu,b)). […] The maximal bioavailability (fmax) after oral application was calculated under the assumption of complete absorption from the gastrointestinal tract (fa = 1) as fmax = 1 − CLb/Q."}, "female mice": {"tested_on": "female mice", "parameters": "method as in doi:10.2903/sp.efsa.2018.EN-1406", "conditions": "cited from earlier work"}, "CYP3A [11]": {"tested_on": "CYP3A", "experiment": "in vitro", "conditions": "human, microsomes, pH 7.4"}, "CYP3A4 [12]": {"tested_on": "CYP3A4", "conditions": "cited from earlier work"}}, "note": "Like-named read-outs stand apart in the source and are kept apart here."}
{"smiles": "CC1=C[C@H]2O[C@@H]3[C@H](O)C[C@](C)([C@@]2(CO)[C@H](O)C1=O)[C@]31CO1", "note": "[DON, Deoxynivalenol]", "values": [{"measurement": "effect on MDZ metabolite formation profiles", "setting": "CYP3A [3]; HLM, DON up to 50 µM", "value": "Only an indication of a slight change"}, {"measurement": "effect on MDZ depletion kinetics", "setting": "CYP3A [3]; HLM, DON up to 50 µM, data not shown", "value": "did not have a significant effect"}, {"measurement": "formation of hydroxylated ENNB1 metabolites vs assays only containing ENNB1", "setting": "CYP3A4 [4]", "value": "significantly lower"}, {"measurement": "effect on formation of ENNB1 metabolites M3/4, M5, M6 (sum)", "setting": "CYP3A4/5", "value": "inhibited the formation of the hydroxylated ENNB1 metabolites M3/4, M5, and M6 in HLM significantly"}, {"measurement": "effect on depletion of ENNB1", "setting": "CYP3A4/5; data not shown", "value": "did not observe a significant difference"}, {"measurement": "reduction of CYP3A reactivity", "setting": "CYP3A [5]", "value": "about 20%"}, {"measurement": "inhibition of the CYP3A4-dependent metabolism of the typical substrates", "setting": "CYP3A4 [6]", "value": "weak to moderate inhibition"}, {"measurement": "decrease of 2-OH ATVS lactone (minor product) formation", "setting": "CYP3A4 [6]; human, pH 7.4", "value": "about 20%"}]}
{"smiles": "CC[C@H](C)[C@H]1C(=O)O[C@H](C(C)C)C(=O)N(C)[C@@H](C(C)C)C(=O)O[C@H](C(C)C)C(=O)N(C)[C@@H](C(C)C)C(=O)O[C@H](C(C)C)C(=O)N1C", "note": "[ENNB1, Enniatin B1]", "values": [{"measurement": "bioavailability", "setting": "[7]", "value": "< 10", "unit": "%"}, {"measurement": "bioavailability", "setting": "[8]", "value": "> 90", "unit": "%"}, {"measurement": "1,4-OH-MDZ level relative to ENNB1-free metabolism", "setting": "CYP3A [3]; HLM, after 60 min, with ENNB1", "value": "reduced to the half"}, {"measurement": "1-OH-MDZ level relative to ENNB1-free metabolism", "setting": "CYP3A [3]; HLM, after 60 min, with ENNB1", "value": "returned to normal"}, {"measurement": "MDZ metabolite formation in presence of ENNB1", "setting": "CYP3A [3]; HLM, first 15 min", "value": "generally hindered"}, {"measurement": "CLint, assay", "setting": "[9]; 1 mL assay, 2 mg microsomal protein", "value": 0.07, "unit": "mL/min"}, {"measurement": "unchanged molecule detectable", "setting": "[9]; incubation of 6 µM for 60 min", "value": "less than 4%"}, {"measurement": "k el at 3 µM", "setting": "[9]; human, human liver microsomes, pH 7.4, ENNB1 concentration 3 µM, read-out: ke (converted)", "value": 0.00108, "unit": "s⁻¹"}, {"measurement": "half-life at 3 µM", "setting": "[9]; human, human liver microsomes, pH 7.4, substrate concentration 3 µM, read-out: t1/2, assay", "value": 11, "unit": "min"}, {"measurement": "Km", "setting": "[9]; human, liver microsomes, pH 7.4, derived from depletion assays with three ENNB1 concentrations (0.8; 3; 6 µM)", "value": 10.1, "unit": "µM"}, {"measurement": "spin shift of CYP3A4 haem iron (binding)", "setting": "CYP3A4 [1]; ND, ENNB1 21 µM", "value": "visible spectral change"}, {"measurement": "half-life at […]", "setting": "in vitro", "value": 12, "unit": "min"}, {"measurement": "bioavailability", "setting": "[10]; human liver microsomes, po, assuming complete absorption from the gastrointestinal tract, read-out: fmax (maximum oral bioavailability)", "value": 45, "unit": "%"}, {"measurement": "CLint", "setting": "[10]; human, MRI = 40 mg/g, RLW = 22 g/kg BW", "value": "1.72 L/(h×kg×BW)"}, {"measurement": "CLb", "setting": "[10]; human, well-stirred model, Q = 1.4 L/(h × kg), fu,b ≈ 1", "value": "0.77 L/(h×kg×BW)"}]}
{"smiles": "CC(C)[C@H]1C(=O)O[C@H](C(C)C)C(=O)N(C)[C@@H](C(C)C)C(=O)O[C@H](C(C)C)C(=O)N(C)[C@@H](C(C)C)C(=O)O[C@H](C(C)C)C(=O)N1C", "note": "[ENNB, Enniatin B]", "values": [{"measurement": "bioavailability", "setting": "[7]", "value": "< 10", "unit": "%"}, {"measurement": "bioavailability", "setting": "[8]", "value": "> 90", "unit": "%"}, {"measurement": "no-observed adverse effect level (NOAEL)", "setting": "female mice", "value": "0.18 mg/kg body-weight (bw)/day"}]}
{"smiles": "Cc1ncc2n1-c1ccc(Cl)cc1C(c1ccccc1F)=NC2", "note": "[MDZ, midazolam]", "values": [{"measurement": "initial MDZ detectable", "setting": "CYP3A [3]; human, pH 7.4", "value": "about 0.2%"}, {"measurement": "half-life", "setting": "CYP3A [11]", "value": 12, "unit": "min"}, {"measurement": "Km", "setting": "CYP3A4 [12]; read-out: KM,1-OH-MDZ, 1-hydroxylation of MDZ", "value": 3.9, "unit": "µM"}, {"measurement": "Km", "setting": "CYP3A4 [12]; read-out: KM,4-OH-MDZ, 4-hydroxylation of MDZ", "value": 77.5, "unit": "µM"}]}
{"smiles": "CC(=O)[C@H]1CC[C@H]2[C@@H]3CCC4=CC(=O)CC[C@]4(C)[C@H]3CC[C@]12C", "note": "[PGS, progesterone, reference compound]", "values": [{"measurement": "PGS hydroxylation rate (sum of 2β- and 6β-OH-PGS)", "setting": "CYP3A4 [6]; PGS 15 μM", "value": "5.3 ± 0.6 nmol/(min×nmol CYP3A4)"}, {"measurement": "PGS hydroxylation rate (sum of 2β- and 6β-OH-PGS)", "setting": "CYP3A4 [6]; PGS 40 μM", "value": "10.4 ± 1.0 nmol/(min×nmol CYP3A4)"}]}
